From patent US12042564B2, “Therapeutic solid dosage forms” (CYBIN UK LTD, priority 2020, dated 2024)
Where “and” joins values, the source holds several entries; their conditions need not be identical. Identical values can stand only once. Marks after values point to notes of the source that are not given here.

Columns and labels:
[1] = test system: human liver mitochondrial fraction; assay: Intrinsic clearance and half-life in human liver mitochondrial fraction; type: in vitro ADME; details: 0.5 mg/mL human liver mitochondrial fraction, 1 μM test compounds; for Half-life (min) R1: 5 μM Serotonin and Benzylamine controls, replicate 1; for Half-life (min) R3 / Half-life (min) R4 / Half-life (min) Mean: 5 μM controls; for Half-life (min) R3: replicate 3; for Half-life (min) R4: replicate 4; for Half-life (min) Mean: mean of replicates
Excerpt: (§1) Use of Liver Mitochondrial Fraction to Model Human Metabolism of Deuterated DMT

[2] = as above; type: in vitro ADME; details: 0.5 mg/mL human liver mitochondrial fraction; 1 μM test compounds, 5 μM controls; mean of replicates
Excerpt: as §1

[3] = Plasma IAA metabolite levels after oral dosing in rats; details: for Mean IAA Cmax: rat plasma IAA (semi quantified) after 25 mg/kg PO of the compound; for Mean IAA tmax: rat plasma IAA after 25 mg/kg PO of the compound; for Estimated IAA Concentration / Estimated IAA Concentration, Mean: rat plasma, PO Dose (25 mg/kg); for Estimated IAA Concentration: individual animal; for Estimated IAA Concentration, Mean: mean of animals; for IAA biosynthesis compared to SPL026: rat, PO dosing
[4] = test system: Human (mixed gender) hepatocytes; assay: In vitro intrinsic clearance of DMT and deuterated blends in human hepatocytes; type: in vitro ADME
Procedure: Use of Human Hepatocytes to Assess the In Vitro Intrinsic Clearance of Deuterated DMT Analogue Blends Relative to DMT
To use human hepatocytes to assess the in vitro intrinsic clearance of deuterated DMT analogue blends relative to DMT.
Test compounds were mixed with the hepatocyte suspension within a 96-well plate and incubated for up to 60 minutes at 37° C. The suspension was continuously agitated. At 7 time points, small aliquots were withdrawn, and the test compound/blend concentration therein was measured by LC-MS/MS.
Intrinsic clearance and half-life values were calculated for DMT and the 6 deuterated mixtures described above.

[5] = Plasma pharmacokinetics of test compound after oral dosing in rats; details: for mean Cmax / Determined Concentration of test compound in plasma / Determined Concentration of test compound in plasma, Mean: rat plasma; for mean Cmax: 25 mg/kg single oral gavage; for Determined Concentration of test compound in plasma / Determined Concentration of test compound in plasma, Mean: oral dosing; for Determined Concentration of test compound in plasma: individual animal; for Determined Concentration of test compound in plasma, Mean: mean of 3 animals; for systemic exposure compared to SPL026: rat, oral (PO) dosing
[6] = 10 min, fumarate salt, 25 mg/kg
[7] = 15 min, fumarate salt, 25 mg/kg
[8] = 30 min, fumarate salt, 25 mg/kg
[9] = 45 min, fumarate salt, 25 mg/kg
[10] = 60 min, fumarate salt, 25 mg/kg
[11] = 120 min, fumarate salt, 25 mg/kg
[12] = 180 min, fumarate salt, 25 mg/kg

NCc1ccccc1 [Benzylamine, reference compound]
Half-life (min) R1 [1]: 24.3 min
Half-life (min) R3 [1]: 21.2 min
Half-life (min) R4 [1]: 23.5 min
half-life at 5 μM [2]: 22.8 min

O=C(O)/C=C/C(=O)O.[2H]C([2H])(Cc1c[nH]c2ccccc12)N(C)C [SPL028i, (96.6%) α,α,-dideutero-N,N-dimethyltryptamine fumarate salt]
Mean IAA Cmax ([3]; fumarate salt): 2.933 ng/mL and 2.993 ng/mL
Mean IAA tmax [3]: 45 min
Estimated IAA Concentration ([3]; 1 min): BLQ
Estimated IAA Concentration, Mean ([3]; 1 min): BLQ
Estimated IAA Concentration ([3]; 5 min, fumarate salt, 25 mg/kg): 0.523 ng/mL and 0.874 ng/mL and 0.503 ng/mL
Estimated IAA Concentration, Mean ([3]; 5 min): 0.633 ng/mL
Estimated IAA Concentration [3, 6]: 1.24 ng/mL and 1.84 ng/mL and 1.34 ng/mL
Estimated IAA Concentration, Mean ([3]; 10 min): 1.473 ng/mL
Estimated IAA Concentration [3, 7]: 2.41 ng/mL and 0.749 ng/mL and 1.97 ng/mL
Estimated IAA Concentration, Mean ([3]; 15 min): 1.709 ng/mL
Estimated IAA Concentration [3, 8]: 3.53 ng/mL and 2.10 ng/mL and 2.18 ng/mL
Estimated IAA Concentration, Mean ([3]; 30 min): 2.606 ng/mL
Estimated IAA Concentration [3, 9]: 4.67 ng/mL and 1.95 ng/mL and 2.35 ng/mL
Estimated IAA Concentration, Mean ([3]; 45 min): 2.993 ng/mL
Estimated IAA Concentration [3, 10]: 2.78 ng/mL and 1.59 ng/mL and 1.50 ng/mL
Estimated IAA Concentration, Mean ([3]; 60 min): 1.955 ng/mL
Estimated IAA Concentration [3, 11]: 2.94 ng/mL and 1.42 ng/mL and 1.81 ng/mL
Estimated IAA Concentration, Mean ([3]; 120 min): 2.055 ng/mL
Estimated IAA Concentration [3, 12]: 2.09 ng/mL and 0.898 ng/mL and 1.45 ng/mL
Estimated IAA Concentration, Mean ([3]; 180 min): 1.480 ng/mL
Estimated IAA Concentration ([3]; Predose): BLQ
Estimated IAA Concentration, Mean ([3]; Predose): BLQ
IAA biosynthesis compared to SPL026 [3]: significant decrease
half-life compared to undeuterated-DMT [4]: nearly doubling
intrinsic clearance rate compared to undeuterated-DMT [4]: almost halved
Half-life (min) R1 [1]: 86.1 min
Half-life (min) Mean [1]: 85.0 min
Half-life (min) R3 [1]: 82.6 min
Half-life (min) R4 [1]: 72.1 min
mean Cmax [5]: 54.3 ng/mL
Determined Concentration of test compound in plasma ([5]; 1 min): BLQ (Below the lower limit of quantification 0.310 ng/mL)
Determined Concentration of test compound in plasma, Mean ([5]; 1 min): BLQ (Below the lower limit of quantification 0.310 ng/mL)
Determined Concentration of test compound in plasma ([5]; 5 min, fumarate salt): 0.865 ng/mL and 5.85 ng/mL and 0.688 ng/mL
Determined Concentration of test compound in plasma, Mean ([5]; 5 min): 2.5 ng/mL
Determined Concentration of test compound in plasma ([5]; 10 min, fumarate salt): 2.42 ng/mL and 49.2 ng/mL and 6.72 ng/mL
Determined Concentration of test compound in plasma, Mean ([5]; 10 min): 19.4 ng/mL
Determined Concentration of test compound in plasma ([5]; 15 min, fumarate salt): 7.46 ng/mL and 34.3 ng/mL and 19.0 ng/mL
Determined Concentration of test compound in plasma, Mean ([5]; 15 min): 20.3 ng/mL
Determined Concentration of test compound in plasma ([5]; 30 min, fumarate salt): 22.6 ng/mL (2×) and 46.4 ng/mL
Determined Concentration of test compound in plasma, Mean ([5]; 30 min): 30.5 ng/mL
Determined Concentration of test compound in plasma ([5]; 45 min, fumarate salt): 22.6 ng/mL and 33.1 ng/mL and 43.7 ng/mL
Determined Concentration of test compound in plasma, Mean ([5]; 45 min): 33.1 ng/mL
Determined Concentration of test compound in plasma ([5]; 60 min, fumarate salt): 30.5 ng/mL and 32.1 ng/mL and 53.1 ng/mL
Determined Concentration of test compound in plasma, Mean ([5]; 60 min): 38.6 ng/mL
Determined Concentration of test compound in plasma ([5]; 120 min, fumarate salt): 38.0 ng/mL and 18.7 ng/mL and 49.3 ng/mL
Determined Concentration of test compound in plasma, Mean ([5]; 120 min): 35.3 ng/mL
Determined Concentration of test compound in plasma ([5]; Predose): BLQ (Below the lower limit of quantification 0.310 ng/mL)
Determined Concentration of test compound in plasma, Mean ([5]; Predose): BLQ (Below the lower limit of quantification 0.310 ng/mL)
systemic exposure compared to SPL026 [5]: increased systemic exposure

[2H]C([2H])([2H])N(CCc1c[nH]c2ccccc12)C([2H])([2H])[2H] [SPL028vii]
Half-life (min) Mean [1]: 10.2 min
Half-life (min) R3 [1]: 9.4 min
Half-life (min) R4 [1]: 10.9 min

O=C(O)/C=C/C(=O)O.[2H]C([2H])([2H])N(C([2H])([2H])[2H])C([2H])([2H])Cc1c[nH]c2ccccc12 [SPL028viii, (96.7%) α,α,-dideutero-N,N-bis-trideutero-dimethyltryptamine fumarate salt]
Mean IAA Cmax [3]: 0.827 ng/mL
Mean IAA tmax [3]: 60 min
Estimated IAA Concentration ([3]; 1 min): BLQ
Estimated IAA Concentration, Mean ([3]; 1 min): BLQ
Estimated IAA Concentration ([3]; 5 min, fumarate salt, 25 mg/kg): BLQ (2×) and 0.223 ng/mL
Estimated IAA Concentration, Mean ([3]; 5 min): <0.281 ng/mL
Estimated IAA Concentration [3, 6]: BLQ (2×) and 0.430 ng/mL
Estimated IAA Concentration, Mean ([3]; 10 min): <0.350 ng/mL
Estimated IAA Concentration [3, 7]: BLQ (2×) and 0.846 ng/mL
Estimated IAA Concentration, Mean ([3]; 15 min): <0.489 ng/mL
Estimated IAA Concentration [3, 8]: BLQ (2×) and 1.04 ng/mL
Estimated IAA Concentration, Mean ([3]; 30 min): <0.544 ng/mL
Estimated IAA Concentration [3, 9]: 0.347 ng/mL and 0.821 ng/mL and 1.0 ng/mL
Estimated IAA Concentration, Mean ([3]; 45 min): 0.733 ng/mL
Estimated IAA Concentration [3, 10]: BLQ and 0.772 ng/mL and 0.883 ng/mL
Estimated IAA Concentration, Mean ([3]; 60 min): 0.827 ng/mL
Estimated IAA Concentration [3, 11]: BLQ and 0.516 ng/mL and 0.747 ng/mL
Estimated IAA Concentration, Mean ([3]; 120 min): 0.631 ng/mL
Estimated IAA Concentration [3, 12]: BLQ and 0.747 ng/mL and 0.673 ng/mL
Estimated IAA Concentration, Mean ([3]; 180 min): 0.710 ng/mL
Estimated IAA Concentration ([3]; Predose): BLQ
Estimated IAA Concentration, Mean ([3]; Predose): BLQ
IAA biosynthesis compared to SPL026 [3]: significant decrease
Half-life (min) R3 [1]: 92.9 min
Half-life (min) R4 [1]: 131.5† min
mean Cmax [5]: 40.77 ng/mL
Determined Concentration of test compound in plasma ([5]; 1 min, fumarate salt): 19.8 ng/mL and BLQ (Below the lower limit of quantification 0.310 ng/mL) (2×)
Determined Concentration of test compound in plasma, Mean ([5]; 1 min): <6.8 ng/mL
Determined Concentration of test compound in plasma ([5]; 5 min, fumarate salt): 14.9 ng/mL and 3.11 ng/mL and 0.506 ng/mL
Determined Concentration of test compound in plasma, Mean ([5]; 5 min): 6.2 ng/mL
Determined Concentration of test compound in plasma ([5]; 10 min, fumarate salt): 18.0 ng/mL and 13.7 ng/mL and 11.8 ng/mL
Determined Concentration of test compound in plasma, Mean ([5]; 10 min): 14.5 ng/mL
Determined Concentration of test compound in plasma ([5]; 15 min, fumarate salt): 20.5 ng/mL and 20.3 ng/mL and 36.2 ng/mL
Determined Concentration of test compound in plasma, Mean ([5]; 15 min): 25.7 ng/mL
Determined Concentration of test compound in plasma ([5]; 30 min, fumarate salt): 9.08 ng/mL and 23.0 ng/mL and 35.7 ng/mL
Determined Concentration of test compound in plasma, Mean ([5]; 30 min): 22.6 ng/mL
Determined Concentration of test compound in plasma ([5]; 45 min, fumarate salt): 5.90 ng/mL and 21.7 ng/mL and 40.0 ng/mL
Determined Concentration of test compound in plasma, Mean ([5]; 45 min): 22.5 ng/mL
Determined Concentration of test compound in plasma ([5]; 60 min, fumarate salt): 4.43 ng/mL and 30.5 ng/mL and 62.0 ng/mL
Determined Concentration of test compound in plasma, Mean ([5]; 60 min): 32.3 ng/mL
Determined Concentration of test compound in plasma ([5]; 120 min, fumarate salt): 13.5 ng/mL and 31.6 ng/mL and 63.8 ng/mL
Determined Concentration of test compound in plasma, Mean ([5]; 120 min): 36.3 ng/mL
Determined Concentration of test compound in plasma ([5]; Predose): BLQ (Below the lower limit of quantification 0.310 ng/mL)
Determined Concentration of test compound in plasma, Mean ([5]; Predose): BLQ (Below the lower limit of quantification 0.310 ng/mL)
systemic exposure compared to SPL026 [5]: increased systemic exposure
